Assay in all cases: Ray2010 Assay 74
The target of experiment [1] is T1, Alpha-2C adrenergic receptor (Homo sapiens, UniProt P18825).
T1 sequence (P18825 whole entry): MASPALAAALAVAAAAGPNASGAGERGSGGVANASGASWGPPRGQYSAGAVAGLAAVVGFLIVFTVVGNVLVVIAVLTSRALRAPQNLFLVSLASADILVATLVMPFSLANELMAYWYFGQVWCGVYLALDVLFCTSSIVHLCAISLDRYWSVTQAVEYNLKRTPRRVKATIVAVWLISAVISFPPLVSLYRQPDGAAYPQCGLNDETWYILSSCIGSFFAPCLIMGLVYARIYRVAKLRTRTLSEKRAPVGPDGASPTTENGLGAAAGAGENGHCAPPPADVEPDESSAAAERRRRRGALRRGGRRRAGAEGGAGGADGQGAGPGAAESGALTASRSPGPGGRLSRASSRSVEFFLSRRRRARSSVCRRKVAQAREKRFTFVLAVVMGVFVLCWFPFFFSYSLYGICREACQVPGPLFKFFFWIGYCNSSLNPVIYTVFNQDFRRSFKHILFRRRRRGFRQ
The source says:
(§1) Table S2 shows raw Ki data for the current study combined with data collected from the literature for the ten additional compounds.

A further experiment addresses Nischarin (Homo sapiens, UniProt Q9Y2I1).
Text: as §1

The target in a further experiment is Cannabinoid receptor 1 (Homo sapiens, UniProt P21554).
Text: as §1

A further experiment deals with Histamine H3 receptor (Homo sapiens, UniProt Q9Y5N1).
Text: as §1

Experiment [2] concerns the target 5-hydroxytryptamine receptor 7 (Homo sapiens, UniProt P34969).
Text: as §1

The target of another experiment is Cannabinoid receptor 2 (Homo sapiens, UniProt P34972).
Text: as §1

Experiment [3] concerns the target T2, Alpha-2A adrenergic receptor (Homo sapiens, UniProt P08913).
T2 sequence (P08913 whole entry): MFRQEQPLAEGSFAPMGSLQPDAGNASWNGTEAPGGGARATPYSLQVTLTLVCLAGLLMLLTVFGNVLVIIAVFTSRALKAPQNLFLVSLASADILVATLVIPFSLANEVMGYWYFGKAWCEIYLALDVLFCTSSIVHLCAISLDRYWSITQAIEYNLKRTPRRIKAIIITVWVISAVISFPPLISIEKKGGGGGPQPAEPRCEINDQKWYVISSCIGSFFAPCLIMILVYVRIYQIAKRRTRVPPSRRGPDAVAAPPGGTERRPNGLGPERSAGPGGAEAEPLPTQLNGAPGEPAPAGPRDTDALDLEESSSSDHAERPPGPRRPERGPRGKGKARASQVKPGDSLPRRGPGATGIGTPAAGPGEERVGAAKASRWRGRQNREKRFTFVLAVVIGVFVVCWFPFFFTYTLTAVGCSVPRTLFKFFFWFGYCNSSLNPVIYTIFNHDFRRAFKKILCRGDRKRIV
Text: as §1

Experiment [4] deals with Beta-2 adrenergic receptor (Homo sapiens, UniProt P07550).
Text: as §1

For the next experiment, the target named is Vasopressin V1a receptor (Homo sapiens, UniProt P37288).
Text: as §1

The next experiment deals with T3, Vasopressin V1b receptor (Homo sapiens, UniProt P47901).
T3 sequence (P47901 whole entry): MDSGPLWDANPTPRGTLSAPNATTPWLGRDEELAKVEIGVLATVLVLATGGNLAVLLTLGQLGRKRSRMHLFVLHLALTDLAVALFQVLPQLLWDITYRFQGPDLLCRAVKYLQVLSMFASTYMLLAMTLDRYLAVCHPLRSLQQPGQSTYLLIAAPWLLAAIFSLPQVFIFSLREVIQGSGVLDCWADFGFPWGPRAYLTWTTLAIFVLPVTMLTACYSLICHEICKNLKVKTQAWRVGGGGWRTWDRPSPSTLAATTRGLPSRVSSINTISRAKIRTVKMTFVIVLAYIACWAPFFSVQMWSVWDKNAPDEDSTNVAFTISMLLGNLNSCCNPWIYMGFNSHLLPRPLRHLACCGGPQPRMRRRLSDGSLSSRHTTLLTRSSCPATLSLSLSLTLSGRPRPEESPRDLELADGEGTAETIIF
Text: as §1

In experiment [5] the target is Sigma non-opioid intracellular receptor 1 (Homo sapiens, UniProt Q99720).
Text: as §1

Experiment [6] addresses Sigma intracellular receptor 2 (Homo sapiens, UniProt Q5BJF2).
Text: as §1

Experiment [7] deals with Voltage-dependent calcium channel subunit alpha-2/delta-1 (Homo sapiens, UniProt P54289).
Text: as §1

The target of experiment [8] is Muscarinic acetylcholine receptor M3 (Homo sapiens, UniProt P20309).
Text: as §1

Sequence of Sigma intracellular receptor 2 (Q5BJF2 whole entry): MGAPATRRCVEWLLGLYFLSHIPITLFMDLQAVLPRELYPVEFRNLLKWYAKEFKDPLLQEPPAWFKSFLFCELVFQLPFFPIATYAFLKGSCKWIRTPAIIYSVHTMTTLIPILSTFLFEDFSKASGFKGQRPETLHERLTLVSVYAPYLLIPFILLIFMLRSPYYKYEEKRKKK
Sequence of Sigma non-opioid intracellular receptor 1 (Q99720 whole entry): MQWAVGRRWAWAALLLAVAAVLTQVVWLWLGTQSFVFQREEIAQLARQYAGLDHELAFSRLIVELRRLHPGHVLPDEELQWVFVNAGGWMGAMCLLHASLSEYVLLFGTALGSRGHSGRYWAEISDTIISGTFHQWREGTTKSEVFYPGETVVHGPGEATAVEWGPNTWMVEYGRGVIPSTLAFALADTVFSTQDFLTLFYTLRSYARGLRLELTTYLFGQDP
Sequence of Vasopressin V1a receptor (P37288 whole entry): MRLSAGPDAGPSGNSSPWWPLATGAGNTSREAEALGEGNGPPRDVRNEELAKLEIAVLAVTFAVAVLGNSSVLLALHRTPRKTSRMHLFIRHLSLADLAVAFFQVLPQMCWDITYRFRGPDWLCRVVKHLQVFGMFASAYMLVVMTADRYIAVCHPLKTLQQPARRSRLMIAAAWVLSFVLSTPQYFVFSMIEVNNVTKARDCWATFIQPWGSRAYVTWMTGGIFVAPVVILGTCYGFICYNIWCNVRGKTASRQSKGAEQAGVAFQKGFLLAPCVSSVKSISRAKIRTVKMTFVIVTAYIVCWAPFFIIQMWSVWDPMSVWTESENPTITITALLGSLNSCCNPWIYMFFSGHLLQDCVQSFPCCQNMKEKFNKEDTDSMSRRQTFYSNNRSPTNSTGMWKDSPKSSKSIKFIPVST
Sequence of 5-hydroxytryptamine receptor 7 (P34969 whole entry): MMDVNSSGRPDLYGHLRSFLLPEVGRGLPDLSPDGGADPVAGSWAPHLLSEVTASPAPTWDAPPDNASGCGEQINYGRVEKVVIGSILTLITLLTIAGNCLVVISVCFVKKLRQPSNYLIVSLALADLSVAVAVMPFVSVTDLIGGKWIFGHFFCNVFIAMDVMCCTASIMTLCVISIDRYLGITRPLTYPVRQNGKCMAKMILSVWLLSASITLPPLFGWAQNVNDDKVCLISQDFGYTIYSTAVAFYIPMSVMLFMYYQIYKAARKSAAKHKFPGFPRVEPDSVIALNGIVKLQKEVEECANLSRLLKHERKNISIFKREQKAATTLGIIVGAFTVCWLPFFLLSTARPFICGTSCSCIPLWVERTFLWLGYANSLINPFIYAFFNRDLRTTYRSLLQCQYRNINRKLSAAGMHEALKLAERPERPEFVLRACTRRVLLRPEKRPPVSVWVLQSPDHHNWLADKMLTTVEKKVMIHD
Sequence of Cannabinoid receptor 1 (P21554 whole entry): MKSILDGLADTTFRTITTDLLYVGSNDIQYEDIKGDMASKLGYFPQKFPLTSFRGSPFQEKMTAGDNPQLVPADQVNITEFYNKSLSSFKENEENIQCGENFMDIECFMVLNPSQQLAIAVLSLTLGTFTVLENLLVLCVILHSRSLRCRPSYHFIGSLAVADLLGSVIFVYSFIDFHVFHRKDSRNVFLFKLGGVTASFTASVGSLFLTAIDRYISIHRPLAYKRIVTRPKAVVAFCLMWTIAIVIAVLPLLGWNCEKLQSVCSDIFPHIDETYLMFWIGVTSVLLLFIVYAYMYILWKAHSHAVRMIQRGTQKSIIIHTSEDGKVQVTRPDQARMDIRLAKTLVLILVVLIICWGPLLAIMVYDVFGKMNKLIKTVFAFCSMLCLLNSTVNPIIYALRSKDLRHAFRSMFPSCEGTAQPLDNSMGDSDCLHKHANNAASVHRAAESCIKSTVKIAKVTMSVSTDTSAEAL
Sequence of Nischarin (Q9Y2I1 whole entry): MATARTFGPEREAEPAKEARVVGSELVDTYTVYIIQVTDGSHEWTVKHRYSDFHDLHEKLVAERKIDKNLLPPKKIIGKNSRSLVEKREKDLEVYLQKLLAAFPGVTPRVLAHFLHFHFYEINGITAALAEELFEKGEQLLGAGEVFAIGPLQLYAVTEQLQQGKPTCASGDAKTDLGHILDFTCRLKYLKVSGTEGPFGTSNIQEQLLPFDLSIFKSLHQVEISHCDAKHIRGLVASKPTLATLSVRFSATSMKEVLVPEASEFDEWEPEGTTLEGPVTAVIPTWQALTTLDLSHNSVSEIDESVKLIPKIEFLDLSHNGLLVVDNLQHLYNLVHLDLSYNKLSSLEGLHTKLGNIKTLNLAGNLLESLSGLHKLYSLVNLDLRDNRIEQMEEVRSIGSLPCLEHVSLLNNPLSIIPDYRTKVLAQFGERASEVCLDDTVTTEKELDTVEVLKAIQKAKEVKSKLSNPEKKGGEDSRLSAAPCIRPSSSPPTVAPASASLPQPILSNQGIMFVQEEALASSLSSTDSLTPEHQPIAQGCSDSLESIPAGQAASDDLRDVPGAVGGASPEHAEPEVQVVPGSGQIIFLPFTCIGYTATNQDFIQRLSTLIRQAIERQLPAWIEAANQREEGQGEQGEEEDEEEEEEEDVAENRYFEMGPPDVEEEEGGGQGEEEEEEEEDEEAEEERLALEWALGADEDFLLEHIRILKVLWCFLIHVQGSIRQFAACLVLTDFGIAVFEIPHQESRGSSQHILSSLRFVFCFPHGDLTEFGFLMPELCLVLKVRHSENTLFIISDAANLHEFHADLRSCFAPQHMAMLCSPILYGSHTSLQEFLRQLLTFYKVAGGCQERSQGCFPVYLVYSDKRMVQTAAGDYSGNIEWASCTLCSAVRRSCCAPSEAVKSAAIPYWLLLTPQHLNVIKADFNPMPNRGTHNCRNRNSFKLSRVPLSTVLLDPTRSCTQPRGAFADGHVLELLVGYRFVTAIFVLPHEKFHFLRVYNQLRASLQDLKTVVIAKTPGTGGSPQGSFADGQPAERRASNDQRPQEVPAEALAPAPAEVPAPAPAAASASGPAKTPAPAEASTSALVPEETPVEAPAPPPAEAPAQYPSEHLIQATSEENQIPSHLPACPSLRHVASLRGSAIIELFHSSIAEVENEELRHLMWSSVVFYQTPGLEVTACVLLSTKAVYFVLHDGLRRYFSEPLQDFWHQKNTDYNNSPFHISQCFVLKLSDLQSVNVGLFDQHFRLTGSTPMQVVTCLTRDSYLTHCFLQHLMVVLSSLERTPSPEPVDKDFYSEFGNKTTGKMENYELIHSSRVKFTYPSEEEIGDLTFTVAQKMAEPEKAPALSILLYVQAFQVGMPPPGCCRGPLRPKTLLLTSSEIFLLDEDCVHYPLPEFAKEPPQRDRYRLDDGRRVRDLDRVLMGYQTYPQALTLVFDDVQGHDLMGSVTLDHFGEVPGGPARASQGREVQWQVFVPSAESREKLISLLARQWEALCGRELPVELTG
Sequence of Histamine H3 receptor (Q9Y5N1 whole entry): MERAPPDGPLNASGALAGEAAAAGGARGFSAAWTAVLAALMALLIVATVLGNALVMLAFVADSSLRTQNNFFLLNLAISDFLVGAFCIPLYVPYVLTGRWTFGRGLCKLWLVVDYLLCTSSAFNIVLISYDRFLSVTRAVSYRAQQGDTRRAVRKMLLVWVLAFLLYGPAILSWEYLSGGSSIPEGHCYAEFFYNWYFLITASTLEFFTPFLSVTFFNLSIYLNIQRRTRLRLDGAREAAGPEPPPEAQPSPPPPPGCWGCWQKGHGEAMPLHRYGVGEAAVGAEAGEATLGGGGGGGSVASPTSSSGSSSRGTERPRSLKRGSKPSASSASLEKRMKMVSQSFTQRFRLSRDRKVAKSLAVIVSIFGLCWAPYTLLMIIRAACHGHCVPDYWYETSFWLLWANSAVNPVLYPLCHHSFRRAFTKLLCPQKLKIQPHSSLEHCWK
Sequence of Cannabinoid receptor 2 (P34972 whole entry): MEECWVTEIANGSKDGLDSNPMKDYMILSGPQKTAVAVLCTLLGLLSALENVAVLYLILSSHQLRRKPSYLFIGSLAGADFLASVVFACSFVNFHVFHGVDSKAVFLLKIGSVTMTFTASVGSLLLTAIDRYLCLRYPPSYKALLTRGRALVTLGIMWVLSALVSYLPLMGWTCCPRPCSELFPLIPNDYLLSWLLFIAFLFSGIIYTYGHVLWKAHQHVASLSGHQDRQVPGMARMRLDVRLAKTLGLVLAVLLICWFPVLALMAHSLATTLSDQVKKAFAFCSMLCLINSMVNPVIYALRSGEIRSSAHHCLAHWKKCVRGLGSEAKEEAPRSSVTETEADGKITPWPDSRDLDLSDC
Sequence of Muscarinic acetylcholine receptor M3 (P20309 whole entry): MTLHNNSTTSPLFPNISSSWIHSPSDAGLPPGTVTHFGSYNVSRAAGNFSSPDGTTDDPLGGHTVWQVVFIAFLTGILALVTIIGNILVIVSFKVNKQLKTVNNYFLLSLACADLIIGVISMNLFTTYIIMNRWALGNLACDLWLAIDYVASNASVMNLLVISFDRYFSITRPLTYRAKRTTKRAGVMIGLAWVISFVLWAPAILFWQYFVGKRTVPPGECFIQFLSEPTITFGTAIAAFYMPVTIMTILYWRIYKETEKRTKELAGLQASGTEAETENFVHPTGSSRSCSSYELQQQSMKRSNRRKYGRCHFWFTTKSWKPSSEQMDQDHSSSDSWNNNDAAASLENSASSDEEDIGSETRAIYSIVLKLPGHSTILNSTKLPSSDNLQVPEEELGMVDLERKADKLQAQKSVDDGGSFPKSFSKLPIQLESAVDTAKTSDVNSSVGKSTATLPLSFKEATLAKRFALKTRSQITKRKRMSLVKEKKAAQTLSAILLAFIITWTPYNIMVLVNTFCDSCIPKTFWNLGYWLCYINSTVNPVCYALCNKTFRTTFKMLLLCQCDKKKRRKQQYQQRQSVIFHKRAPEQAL

Usually Ki stands for a dissociation constant, usually derived from enzyme kinetics or from competition with a known ligand. Take `CC(N)Cc1ccc2c(c1)OCO2` (configuration not stated): the Ki is 0.229 µM in experiment [1]; > 10 µM at Nischarin; > 10 µM at Cannabinoid receptor 1; > 10 µM on Histamine H3 receptor; 3.55 µM in experiment [2]; > 10 µM on Cannabinoid receptor 2. The Ki in experiment [3] is 1.66 µM; in experiment [4], > 10 µM.

In the case of `C[C@@H]1C[C@H](C)N1C(=O)C1C=C2c3cccc4[nH]cc(c34)C[C@H]2N(C)C1` (stereo partly drawn) [cis-2a], the inhibition constant (Ki) on Vasopressin V1a receptor and at Vasopressin V1b receptor was > 10 µM in each case.

For the molecule `COc1cc(CC(C)N)cc(OC)c1OC` (configuration not stated), the Ki in experiment [1] is 5.01 µM; on Nischarin, > 10 µM; in experiment [5], 0.536 µM; on Cannabinoid receptor 1, > 10 µM; at Histamine H3 receptor it was > 10 µM; in [2] it was 0.749 µM. Further, the inhibition constant (Ki) at Cannabinoid receptor 2 was > 10 µM; in [3], 2.07 µM; in [4], > 10 µM; in [6] it was 0.536 µM.

On to `COc1cc(CC(C)N)c(OC)cc1C` (stereo not drawn) [(+/-)2-(2,5-Dimethoxy-4-methyl-phenyl)-1-methyl-ethylamine], for which the Ki in [1] was 0.921 µM; at Nischarin, > 10 µM; in [5], > 10 µM; at Cannabinoid receptor 1, > 10 µM; on Histamine H3 receptor it was > 10 µM; in [2], 1.59 µM. Also, the inhibition constant Ki is > 10 µM on Cannabinoid receptor 2, 0.58 µM in experiment [3] and > 10 µM in experiment [6].

Regarding `CN(C)CCc1c[nH]c2ccccc12` [2-(1H-indol-3-yl)-N,N-dimethylethanamine], the Ki on Nischarin is 0.65 µM; in [5] it was 5.21 µM; on Cannabinoid receptor 1 it was > 10 µM; at Histamine H3 receptor it was > 10 µM; in [2] it was 0.0875 µM; on Cannabinoid receptor 2 it was > 10 µM. Moreover, the Ki is 1.56 µM in experiment [3]; > 10 µM in experiment [7]; > 10 µM in [4]; > 10 µM in experiment [6]; > 10 µM in experiment [8].

`COc1cc(OC)c(OC)cc1CC(C)N` (stereo not drawn) [(+/-)1-Methyl-2-(2,4,5-trimethoxy-phenyl)-ethylamine]: the Ki (in [1]; at Histamine H3 receptor; in experiment [2]; in [3]; in [4]) was > 10 µM throughout.

Take `NCCc1c2c(c(Br)c3c1OCC3)OCC2` [2-(8-Bromo-2,3,6,7-tetrahydro-benzo[1,2-b;4,5-b']difuran-4-yl)-ethylamine]: the inhibition constant (Ki) in [1] was 0.233 µM; on Nischarin, > 10 µM; in [5], > 10 µM; on Cannabinoid receptor 1, > 10 µM; at Histamine H3 receptor, > 10 µM; at Cannabinoid receptor 2 it was 8.97 µM. The Ki is 0.145 µM in experiment [3], > 10 µM in experiment [4], > 10 µM in experiment [6] and 0.339 µM in experiment [8].

In the case of `COC(=O)[C@@H]1C[C@H](OC(C)=O)C(=O)[C@H]2[C@@]1(C)CC[C@H]1C(=O)O[C@H](c3ccoc3)C[C@]21C` [2S,4aR,6a(R,7R,9S,10aS,10bR)-9-(acetyloxy)-2-(furan-3-yl)dodecahydro-6a,10b-dimethyl-4,10-dioxo-2H-naphtho[2,1-c]pyran-7-carboxylic acid methyl ester], the Ki in experiment [2], in experiment [4] and in [8] was > 10 µM throughout.

With `C[C@@H]1C[C@@H](C)N1C(=O)C1C=C2c3cccc4[nH]cc(c34)C[C@H]2N(C)C1` (some centres not stated) [rr-2b], the Ki at Vasopressin V1a receptor and on Vasopressin V1b receptor was > 10 µM each time.

For `CC[C@H]1C[C@@H]2C[C@H]3c4[nH]c5ccc(OC)cc5c4CCN(C2)[C@@H]13`, the figures for the inhibition constant Ki in [5], in experiment [6] and in experiment [8] were 5.84 µM, 0.206 µM and 12.5 µM, respectively.

Take “CAS_82830-44-2::(2R)-1-(4-iodo-2,5-dimethoxyphenyl)propan-2-amine::DOI,(-)::US20250270173, Compound DOI”: the Ki in experiment [1] is 0.601 µM; at Nischarin it was > 10 µM; in experiment [5], 8.56 µM; on Cannabinoid receptor 1 it was > 10 µM; at Histamine H3 receptor, > 10 µM; in [2] it was 5.77 µM. The Ki on Cannabinoid receptor 2 is > 10 µM; in experiment [3], 0.0737 µM; in experiment [4] it was 0.139 µM; in [6] it was 9.17 µM; in [8], 1.43 µM.

`CCN(CC)C(=O)[C@@H]1C=C2c3cccc4[nH]cc(c34)C[C@H]2N(C)C1` [[N-methyl-3H]LSD]: the Ki on Vasopressin V1a receptor and at Vasopressin V1b receptor was > 10 µM throughout.

As to `CCc1[nH]c2ccc(OC)cc2c1CCN(C)C` [2-ethyl-5-methoxy-N,N-dimethyltryptamine], the Ki (at Vasopressin V1a receptor; on Vasopressin V1b receptor; on Histamine H3 receptor; in experiment [8]) was > 10 µM in each case.

With `COc1ccc2[nH]c(C)c(CCN(C)C)c2c1` [[2-(5-Methoxy-2-methyl-1H-indol-3-yl)-ethyl]-dimethyl-amine (C2H2O)], the inhibition constant Ki (on Vasopressin V1a receptor; at Vasopressin V1b receptor; at Histamine H3 receptor; in [8]) was > 10 µM throughout.

For the molecule `COc1ccc2[nH]cc(CCN(C)C)c2c1` [3-(2-DIMETHYLAMINOETHYL)-5-METHOXYINDOLE], the Ki in experiment [1] is 0.508 µM; at Nischarin, 2.5 µM; in [5], > 10 µM; at Cannabinoid receptor 1 it was > 10 µM; on Cannabinoid receptor 2, > 10 µM; in experiment [3], 1.89 µM. The Ki in experiment [7], in experiment [4], in [6] and in experiment [8] was > 10 µM each time.

As to `CN(C)CCc1c[nH]c2cccc(O)c12` [4-hydroxy-N,N-dimethyltryptamine], the Ki on Nischarin was 0.792 µM; in experiment [5] it was > 10 µM; at Cannabinoid receptor 1, > 10 µM; on Histamine H3 receptor it was > 10 µM; at Cannabinoid receptor 2, > 10 µM; in experiment [7] it was > 10 µM. The Ki in experiment [4], in [6] and in [8] was > 10 µM throughout.

Regarding `CCc1cc(OC)c(CC(C)N)cc1OC` (configuration not stated), the Ki in experiment [1] was 1.45 µM; at Nischarin, > 10 µM; in [5], 9.78 µM; on Cannabinoid receptor 1, > 10 µM; on Histamine H3 receptor, > 10 µM; in [2] it was 1.23 µM. For the same molecule, the Ki on Cannabinoid receptor 2 was > 10 µM; in experiment [3], 1.28 µM; in experiment [6] it was 9.56 µM.

(Values after BindingDB's records for PubMed 20126400 (University of Oklahoma, 2010).)
